Where two headings read alike, the source gives them in different places.
Assays:
[1] = system: COLO320DM cells; assay: Cell viability / CTG proliferation (CellTiter-Glo); format: cell-based, human
Description: (§1) Cell viability assay was performed using CellTiter-Glo (Promega, catalgoue no. G8461) as previously described. Briefly, cells were seeded into a 384-well plate one day before adding inhibitors. Equal volumes of vehicles or drugs diluted at indicated concentration were added into each well the next day, and the cells were incubated for three days. On the third day, after equilibrating plate and CellTiter-Glo reagent at room temperature for 30 min, reagent was added into each well and incubated for 15 min at room temperature. Luminescence was measured using a Synergy 2 microplate reader. Four biological replicates were performed for each condition. Data analysis was performed with GraphPad Prism (v.9.1.0).

[2] = system: COLO320HSR cells; assay: Cell viability / CTG proliferation (CellTiter-Glo); format: cell-based, human; settings: for IC50: Extended Data Fig. 8
Description: as §1

[3] = system: SNU16 cells; assay: Cell viability (CellTiter-Glo); format: cell-based, human; settings: Extended Data Fig. 8; read-out: IC50 SNU16
Description: as §1, with “(v.9.1.0). […]” for “(v.9.1.0).”

[4] = system: GBM39HSR cells; assay: Cell viability (CellTiter-Glo); format: cell-based, human; settings: Extended Data Fig. 8
Description: as §1

[5] = system: GBM39ec cells; assay: Cell viability (CellTiter-Glo); format: cell-based, human; settings: Extended Data Fig. 8
Description: as §1

[6] = system: γH2AX in COLO320DM and COLO320HSR cells; assay: γH2AX IF combined with EdU labelling; format: cell-based, human; settings: COLO320DM vs COLO320HSR, especially EdU+ cells
Description: Coverslips were coated with 100 µg ml^−^1 poly-L-lysine overnight or 10 µg ml^−^1 laminin for 1 h at 37 °C before seeding cells. Asynchronized cells were seeded onto slides and subject to different treatment. Where indicated, EdU was added to each well at 10 µg ml^−^1 30 min before collecting samples. IF and dual-IF DNA FISH staining were performed as described before. Briefly, slides were fixed with ice-cold 4% paraformaldehyde (PFA) for 15 min, followed by permeabilization with 0.5% Triton X-100 in PBS for 15 min at room temperature. Samples were blocked with 3% BSA in PBS for 1 h at room temperature before incubation with primary antibody diluted in blocking buffer at 4 °C overnight. Dilution ratio for first antibodies was as follows: γH2Ax, 1:500; pRPA2-S33, 1:1,000; pCHK1S345, 1:250; 53BP1, 1:500; cyclin A, 1:100; pRNAPII S2/S4, 1:1,000. […]
Image analysis and quantification were performed using the open-source software CellProfiler (v.4.2.1). For foci number analysis, DAPI staining, IF staining and DNA FISH channel were analysed through automatic thresholding and segmentation to cell nuclei, pRPA2S33/γH2AX foci and DNA FISH foci respectively. […] For fluorescence intensity measurement, nuclei were called based on DAPI channel through automatic thresholding and segmentation; mean fluorescence intensity was retrieved by measuring mean fluorescence intensity within each nucleus.

[7] = system: ecDNA-containing tumour cells; assay: TUNEL and PI-Annexin V staining (apoptosis); format: cell-based, human; settings: 1 µM CHIR-124, ecDNA-containing vs HSR cells
Description: TUNEL assay (Invitrogen, catalogue no. C10617) was performed to detect DNA fragmentation during apoptosis. COLO320DM, COLO320HSR and SNU16 cells were treated with 1 µM CHIR-124 for indicated times. All cells including floating cells were collected and spun down onto slides using a cytospin (Thermo Scientific Cytospin 4 Centrifuge). Slides were fixed with 4% PFA and permeabilized with 0.25% Triton X-100, followed by labelling of free double strand end with EdUTP by reaction catalysed by TdT enzyme in a humidified chamber at 37 °C for 60 min. Incorporated EdUTP was detected through Click-iT Plus TUNEL reaction according to the manufacturer’s manual at 37 °C for 30 min. Slides were counterstained with DAPI and mounted with ProLong Diamond Antifade.
Cell apoptosis was detected through flow cytometry using a FITC Annexin V Apoptosis Detection Kit (BD Biosciences, catalogue no. 556547). Cells were treated with 1 µM of CHIR-124 for the indicated time, and all the cells including floating cells were collected. After washing with PBS twice and cell number counting, cells were resuspended in 1× binding buffer provided by the kit at a concentration of 1 × 10^6 cells per millilitre. […] After incubation at room temperature for 15 min, all the samples were analysed with BD LSR II flow cytometry (BD Biosciences) within 1 h. Flow cytometry data were analysed through Beckman Coulter Kaluza software (v.2.1).

[8] = target: T1, Full-length human CHK1 protein (Homo sapiens, UniProt O14757); assay: Kinase HTRF biochemical assay (CHK1 enzyme inhibition); settings: HTRF KinEASE, ATP 1 mM; read-out: CHK1 biochemical potency (IC50)
T1 construct: purchased Carna Biosciences, Inc. 02-117
T1 sequence (O14757 1-476): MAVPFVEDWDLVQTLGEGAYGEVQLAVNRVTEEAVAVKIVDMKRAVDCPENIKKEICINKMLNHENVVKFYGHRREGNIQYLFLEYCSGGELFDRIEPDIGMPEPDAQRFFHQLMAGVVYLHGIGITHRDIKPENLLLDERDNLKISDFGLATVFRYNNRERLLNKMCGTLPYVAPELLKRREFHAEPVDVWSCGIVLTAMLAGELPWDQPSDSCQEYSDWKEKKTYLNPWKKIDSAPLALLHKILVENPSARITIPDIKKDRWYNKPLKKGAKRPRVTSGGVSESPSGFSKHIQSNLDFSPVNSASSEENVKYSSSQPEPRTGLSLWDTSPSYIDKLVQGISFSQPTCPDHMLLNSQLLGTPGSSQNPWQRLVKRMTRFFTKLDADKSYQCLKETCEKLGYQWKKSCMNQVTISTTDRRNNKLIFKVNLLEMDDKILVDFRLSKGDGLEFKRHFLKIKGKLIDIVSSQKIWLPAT
Description: CHK1 enzyme activity was measured using a homogeneous time resolved fluorescence (HTRF) KinEASE assay (Cisbio, catalogue no. 62ST1PEC). Full-length human CHK1 protein (GenBank accession number NP_001265.1) was obtained from Carna Biosciences, Inc. (catalogue no. 02-117). The enzyme reaction was carried out in assay buffer containing (final concentrations): CHK1 enzyme (0.012 ng µl^−^1), MgCl2 (5 mM) and DTT (1 mM). To determine compound dose response, DMSO stock solutions were serially diluted in a ten-point concentration series in duplicate. Compound solution (50 nl) was added to 384-well assay plates (Greiner, catalogue no. 784075). To each well containing compound solution was added assay buffer solution (5 µl). Plates were centrifuged at 1,000 rpm for 1 min, then incubated at room temperature for 10 min. The reaction was started by addition of substrate buffer (5 µl per well) containing (final concentrations): STK substrate 1-biotin (120 nM) and ATP (1 mM). Assay plates were centrifuged at 1,000 rpm for 1 min, then incubated at room temperature for 60 min. The reaction was stopped by the addition of detection buffer (Cisbio, 10 µl) containing (final concentrations): STK antibody cryptate (0.25 nM) and streptavidin-XL665 (7.5 nM). […] HTRF signal was read on an EnVision multimode plate reader (Cisbio) in HTRF mode. […]

[9] = system: CHK1/CHK2; assay: CHK1/CHK2 selectivity; format: biochemical
[10] = system: pCHK1-S345 in HT29 cells; assay: AlphaLISA SureFire Ultra p-CHK1 (Ser345) assay in HT29 cells; format: cell-based; settings: 16 h, read-out: CHK1 cellular potency AlphaLisa (IC50)
Description: Compound activity in cells was measured using an AlphaLISA SureFire Ultra p-CHK1 (Ser345) assay (Perkin Elmer, catalogue no. ALSU-PCHK1-A10K). HT29 cells were cultured in McCoy 5 A medium with 10% FBS and 1% penicillin-streptomycin and seeded to 96-well plates (Corning, catalogue no. 3599). Compounds were serially diluted in DMSO over a 10-point dose range with 3-fold dilution, and compound solution was added to each well containing cells. Plates were centrifuged at 1,000 rpm for 30 s. Plates were incubated at 37 °C for 16 h. Supernatant was removed by flicking the plate against a paper towel. Wells were washed once with PBS solution. To each well was added freshly prepared lysis buffer and plates were agitated on a plate shaker at 400 rpm for 30 min. The 96-well cell plates were centrifuged at 1,500 rpm for 1 min. From each well was transferred 10 µl of the lysates to a 384-well Optiplate (Perkin Elmer, catalogue no. 6007290). To each well was added Acceptor Mix (5 µl) and the plates were sealed and wrapped in foil. Plates were agitated on a plate shaker for 2 min, then incubated at room temperature for 1 h. To each well was added Donor Mix (5 µl) and the plates were sealed and wrapped in foil. Plates were agitated on a plate shaker for 2 min, then incubated at room temperature for 1 h. AlphaLisa signal was read on an EnVision multimode plate reader (Perkin Elmer). […]

[11] = Extended Data Fig. 8, read-out: IC50 COLO320DM

IC50 [8] [nM] | IC50 [10] [nM] | IC50 ([1]; COLO320DM cells, read-out: CTG proliferation ecDNA+ (IC50)) [nM] | Structure (SMILES) | IC50 [1, 11] [nM] | IC50 [2] [nM] | IC50 fold higher in COLO320HSR compared to COLO320DM ([2]; Fig. 3d) | IC50 [3] [nM] | IC50 [4] [nM] | IC50 [5] [nM] | DNA damage (γH2AX IF) [6] | cell apoptosis (TUNEL, PI-Annexin V) [7] | CHK1/CHK2 selectivity [9] [×]
 |  |  | O=c1[nH]c2ccc(Cl)cc2c(N[C@@H]2CN3CCC2CC3)c1-c1nc2ccccc2[nH]1 [CHIR-124] | 146 | 1120 | approximately 4 fold | 150 | 1660 | 581 | significantly higher DNA damage in COLO320DM compared with COLO320HSR | more rapid and higher degree of cell apoptosis | 
12 | 122 | 105 | N[C@@H]1CCCN(c2c(Br)cnc3[nH]cc(NC(=O)C4CC4)c23)C1 [GDC-0575] | 167 | 588 |  |  |  |  |  |  | 1.5

From article PMC11540844, “Enhancing transcription–replication conflict targets ecDNA-positive cancers” (Nature, 2024)
